The values that follow come from article PMC3134859, “Chemical Stability of New Acyclovir Analogues with Peptidomimetics” (Scientia Pharmaceutica, 2011).

The conditions of data set [1]: cited from earlier work.
For data set [2] the following is noted: cited from earlier work. This is another data set of the same source.
Data set [3] in a line: Chemical stability (hydrolysis) of acyclovir esters in aqueous buffer, unchanged ester quantified by HPLC. The class given is physicochemical. The following applies: for pH=1, t½, h: pH 1.0 (0.1 M HCl); for pH=1, t½, h / pH=7.4, t½, h: 37°C, decomposition half-life; for chemical stability at pH 1 (in words): pH 1.0, 37°C, acidic conditions; for pH=7.4, t½, h: pH 7.4 (phosphate buffer); for chemical stability at pH 7.4 (in words): pH 7.4, 37°C. The method, then: It was established that, under the described experimental conditions, some esters underwent decomposition by hydrolysis. The hydrolysis followed apparent first order kinetics, and the rate constants (K) were obtained as slopes from the semi-logarithmic plots of the unchanged ester concentration versus time. The chemical stability was assessed by means of the decomposition half-lives: t1/2=ln2/K
Chromatography was carried out isocratically, on a modular KNAUER HPLC system (Germany), consisting of a Smartline Pump 1000, a Smartline Manager 5000 solvent degasser, an injector with a 20 μl loop and a Smartline UV Detector 2600 diode array. The analyses were controlled and the data were acquired with EuroChrom software. The mobile phase consisted of acetonitrile/water in a ratio of 30:70 or 50:50 v/v depending on the polarity of the compound and a flow rate 1 ml/min was used. The detection was performed at relevant λmax for the respective compound (range 252–262 nm).
A single chromatographic method was used to detect the studied acyclovir esters with thiazole rings containing amino acids (Gly, Ala, Val, Leu) in aqueous buffer solutions at pH 1.0 (0.1 M HCl) and pH 7.4 (phosphate buffer). Twenty microlitres of each sample were injected into a reverse phase HPLC C18 column. The mobile phase consisted of acetonitrile/water at a ratio of 30:70 or 50:50 v/v depending on the polarity of the compound. The analyses of the esters of acyclovir with amino acid (Gly, Ala, Val, Leu) containing thiazole rings were validated. The specificity of the method was investigated by observing potential interference between the esters of acyclovir and its parent drug, acyclovir. No interfering peaks were presented in the chromatograms. The linearity of the relationship between the peak area and concentration was determined by analysing six standard solutions in a concentration range of 0.1–1.0 mmol/l. For all analytes, the relationship between the peak area ratio of the drug to the internal standard and concentration was linear over the entire examined concentration range. The correlation coefficients of the calibration curves were greater than 0.997.
Hydrolysis of acyclovir esters with thiazole rings containing amino acids (Gly, Ala, Val, Leu) was studied at pH 1.0 (HCl) and pH 7.4 (phosphate buffered saline). Stock solutions of the prodrugs were prepared and used immediately for stability studies. Aliquots (9.8 ml) of the buffer were placed in a screw-capped vial and allowed equilibrate at 37°C. A prodrug stock solution (0.2 ml) was added to the buffer. The vial was placed in a constant shaker bath set at 37°C and 60 rpm. Each sample was directly analysed by HPLC.

For data set [4], the system named is HSV-2. Set-up: method as in PMID 19400144. The following applies: cited from earlier work.
The test system of data set [5] is HSV-1. Also noted: method as in PMID 19400144. The conditions noted are these: cited from earlier work.
The conditions of data set [6]: cited from earlier work. The source holds these as a separate data set.

Several values for one entry are separate records, joined by “and”; a condition that tells them apart may be missing. Equal values may be shown once. Read-outs that look alike come from different tables or passages of the source.

`Nc1nc2c(ncn2COCCO)c(=O)[nH]1` [ACV, 9-[(2-hydroxyethoxy)methyl]guanine]: the aqueous solubility entry in data set [1] was “low aqueous solubility”. Also, in data set [2], the “bioavailability by oral administration” value is 14%.

Turning to `CC(C)(C)OC(=O)NCc1nc(C(=O)OCCOCn2cnc3c(=O)[nH]c(N)nc32)cs1` [compound 1, Boc-2-aminomethyl-thiazole-acyclovir], in data set [3], the “pH=1, t½, h” value came out at 1.1±0.1 h; the “chemical stability at pH 1 (in words)” value is recorded as “less stable”; the “pH=7.4, t½, h” value turned out to be 5.9±0.5 h; the “chemical stability at pH 7.4 (in words)” value is “lower stability”. The “chemical stability at pH 1 (in words)” value in data set [3] (listed as Gly-thiazole) was “rather unstable”.

As for `CC(NC(=O)OC(C)(C)C)c1nc(C(=O)OCCOCn2cnc3c(=O)[nH]c(N)nc32)cs1` (stereo not drawn) [compound 2, Boc-2-Ala-thiazole-acyclovir], in data set [3], the “pH=1, t½, h” value is listed as 1.3±0.1 h; the “chemical stability at pH 1 (in words)” value is given as “rather unstable”; the “pH=7.4, t½, h” value is 7.8±0.5 h; the “chemical stability at pH 7.4 (in words)” value is recorded as “satisfying chemical stability”. The “effect against HSV-2” value in data set [4] was “appreciable effect”. For the same compound, the “effect against HSV-2” value in data set [4] (listed as Ala-thiazolyl ester of acyclovir) was “prominent activity”.

As for `CC(C)C(NC(=O)OC(C)(C)C)c1nc(C(=O)OCCOCn2cnc3c(=O)[nH]c(N)nc32)cs1` (stereo not drawn) [compound 3, Boc-2-Val-thiazole-acyclovir], in data set [3], the “pH=1, t½, h” value is reported as 0.7±0.1 h; the “chemical stability at pH 1 (in words)” value is on record as “less stable”; the “pH=7.4, t½, h” value is 17 h and 17.8±0.9 h; the “chemical stability at pH 7.4 (in words)” value is “highest chemical stability”. The “chemical stability at pH 7.4 (in words)” value in data set [3] (listed as Valthiazole-acyclovir) was “remarkable”. Moreover, the “effect against HSV-1” value in data set [5] was “did not exhibit a satisfying effect”. Also, the “effect against HSV-2” value in data set [4] was “did not exhibit a satisfying effect”.

`CC(C)CC(NC(=O)OC(C)(C)C)c1nc(C(=O)OCCOCn2cnc3c(=O)[nH]c(N)nc32)cs1` (stereo not drawn) [compound 4, Boc-2-Leu-thiazole-acyclovir]: in data set [3], the “pH=1, t½, h” value was 2.6±0.2 h; the “chemical stability at pH 1 (in words)” value is reported as “rather unstable”; the “pH=7.4, t½, h” value is given as 5.0±0.4 h; the “chemical stability at pH 7.4 (in words)” value was “lower stability”.

For the compound `CC(C)[C@H](N)C(=O)OCCOCn1cnc2c(=O)[nH]c(N)nc21` [valacyclovir], in data set [2] (oral administration), the “bioavailability relative to acyclovir” value is reported as “four-fold higher”. The “t½ at pH 7.4” value is 13 h in data set [6] (pH 7.4, 37°C) and 13 h in data set [6] (pH 7.4).

In general, t½ refers to how long it takes for the measured level to halve.
